Measured values taken from patent US10550080B2 (BRISTOL-MYERS SQUIBB COMPANY, priority 2016, dated 2020).

Columns and labels:
NaV1.7 = NaV1.7 (Homo sapiens (Human), UniProt Q15858); test: Automated electrophysiology, IonWorks Barracuda population patch clamp, NaV1.7 current (inactivated-state protocol); format: cell-based; conditions: HEK 293 cells expressing NaV1.7; 600 sec compound incubation; read-out: NaV1.7 Barra IC50
Description: (§1) Automated Electrophysiology: Ion Works Barracuda population patch clamp (PPC). PPC measurements were performed using an IonWorks Barracuda instrument (Molecular Devices Corporation, Union City, Calif.) using either PatchPlate™ PPC substrates (Molecular Devices Corporation) with 64 apertures per well. The ability to average currents from 64 recordings from each well greatly improves data consistency and recording success rates in the measurement of NaV1.7 mediated ionic currents. Calculated leak current was digitally subtracted from the total cell NaV1.7 current for each sample point acquired.
(§2) NaV1.7 currents were elicited by a voltage clamp protocol designed to bias the NaV1.7 channels to their inactivated state as follows. From holding potential of −60 mV cells were briefly hyperpolarized to −100 mV for 1.25 sec, then stepped to −20 mV for 20 sec to inactivate the channels. This was followed by a relatively brief hyperpolarization to −100 mv for 300 ms, then a 20 msec test pulse to −20 mV to elicit the NaV1.7 current used to measure the pharmacology of all test compounds. Compounds were incubated for 600 sec between the pre- and post-compound reads. The external recording solution used was (in mM) 137 NaCl, 4 KCl, 1 MgCl2, 1.8 CaCl2, 10 Hepes, 10 glucose, pH to 7.4 with NaOH, and the internal solution used was (in mM) 100 K-gluconate, 40 KCl, 3.2 zMgCl2, 5 EGTA, 10 HEPES pH to 7.2 with KOH. The same solutions were used to record NaV1.5 currents, with the following voltage clamp protocol. NaV1.5 currents were elicited by a voltage clamp protocol designed to bias the NaV1.5 channels to their inactivated state as follows. From holding potential of −40 mV cells were briefly hyperpolarized to −100 mV for 300 ms, then stepped to −10 mV for 20 sec to inactivate the channels. This was followed by a relatively brief hyperpolarization to −100 mv for 30 ms, then a 20 msec test pulse to −10 mV to elicit the NaV1.5 current used to measure the pharmacology of all test compounds.
(§3) HEK 293 cells expressing NaV1.7 and NaV1.5 channels, were used (Essen Biosciences, Ann Arbor, Mich.). Cells were cultured in T-175 flasks and passaged every 2 to 3 days at 1:3 to 1:6 seeding density dilutions. Cells were grown to 70% to 90% confluence in a flask and removed from the incubator (37° C., 5% CO2) 1 to 3 days after plating. Growth medium was aspirated from the culture flasks. Cells were gently rinsed with 10 ml of PBS (Catalog number: 14190144, Gibco) to remove residual media. Next a total of 2 mL TrypLE (Gibco) solution was added, and the flasks containing cells were sat for 3 min at RT, after which, the cells became visibly rounded and were easily dislodged from the bottom of the flask with a few brief taps on a solid surface. A total of 8 mL of media was added to the flask to inactivate the TrypLE, and the mixture was centrifuged at 910 rpm for 4 min. The cell supernatant was decanted, and the cell pellets were resuspended in 5-6 mL of external solution followed by gentle triturations using a 10 ml pipette, and transferred to a 15 ml conical tube and immediately brought to the IW Barracuda instrument.
(§4) Peak membrane currents were analyzed with IW Barracuda software and exported to Excel for further analysis. Concentration response curve fitting was performed with BMS in-house software. IC50 values were obtained by fits of the Hill equation to the average percent inhibition data plotted versus compound concentration. […] Results are reported in Table 1 (NaV1.7 Barra IC50 in nM and NaV1.5 Barra IC50 in nM).

NaV1.5 = NaV1.5 (Homo sapiens (Human), UniProt Q14524); test: Automated electrophysiology, IonWorks Barracuda population patch clamp, NaV1.5 current (inactivated-state protocol); format: cell-based; conditions: HEK 293 cells expressing NaV1.5; read-out: NaV1.5 Barra IC50
NaV1.5, sequence (Q14524 whole entry): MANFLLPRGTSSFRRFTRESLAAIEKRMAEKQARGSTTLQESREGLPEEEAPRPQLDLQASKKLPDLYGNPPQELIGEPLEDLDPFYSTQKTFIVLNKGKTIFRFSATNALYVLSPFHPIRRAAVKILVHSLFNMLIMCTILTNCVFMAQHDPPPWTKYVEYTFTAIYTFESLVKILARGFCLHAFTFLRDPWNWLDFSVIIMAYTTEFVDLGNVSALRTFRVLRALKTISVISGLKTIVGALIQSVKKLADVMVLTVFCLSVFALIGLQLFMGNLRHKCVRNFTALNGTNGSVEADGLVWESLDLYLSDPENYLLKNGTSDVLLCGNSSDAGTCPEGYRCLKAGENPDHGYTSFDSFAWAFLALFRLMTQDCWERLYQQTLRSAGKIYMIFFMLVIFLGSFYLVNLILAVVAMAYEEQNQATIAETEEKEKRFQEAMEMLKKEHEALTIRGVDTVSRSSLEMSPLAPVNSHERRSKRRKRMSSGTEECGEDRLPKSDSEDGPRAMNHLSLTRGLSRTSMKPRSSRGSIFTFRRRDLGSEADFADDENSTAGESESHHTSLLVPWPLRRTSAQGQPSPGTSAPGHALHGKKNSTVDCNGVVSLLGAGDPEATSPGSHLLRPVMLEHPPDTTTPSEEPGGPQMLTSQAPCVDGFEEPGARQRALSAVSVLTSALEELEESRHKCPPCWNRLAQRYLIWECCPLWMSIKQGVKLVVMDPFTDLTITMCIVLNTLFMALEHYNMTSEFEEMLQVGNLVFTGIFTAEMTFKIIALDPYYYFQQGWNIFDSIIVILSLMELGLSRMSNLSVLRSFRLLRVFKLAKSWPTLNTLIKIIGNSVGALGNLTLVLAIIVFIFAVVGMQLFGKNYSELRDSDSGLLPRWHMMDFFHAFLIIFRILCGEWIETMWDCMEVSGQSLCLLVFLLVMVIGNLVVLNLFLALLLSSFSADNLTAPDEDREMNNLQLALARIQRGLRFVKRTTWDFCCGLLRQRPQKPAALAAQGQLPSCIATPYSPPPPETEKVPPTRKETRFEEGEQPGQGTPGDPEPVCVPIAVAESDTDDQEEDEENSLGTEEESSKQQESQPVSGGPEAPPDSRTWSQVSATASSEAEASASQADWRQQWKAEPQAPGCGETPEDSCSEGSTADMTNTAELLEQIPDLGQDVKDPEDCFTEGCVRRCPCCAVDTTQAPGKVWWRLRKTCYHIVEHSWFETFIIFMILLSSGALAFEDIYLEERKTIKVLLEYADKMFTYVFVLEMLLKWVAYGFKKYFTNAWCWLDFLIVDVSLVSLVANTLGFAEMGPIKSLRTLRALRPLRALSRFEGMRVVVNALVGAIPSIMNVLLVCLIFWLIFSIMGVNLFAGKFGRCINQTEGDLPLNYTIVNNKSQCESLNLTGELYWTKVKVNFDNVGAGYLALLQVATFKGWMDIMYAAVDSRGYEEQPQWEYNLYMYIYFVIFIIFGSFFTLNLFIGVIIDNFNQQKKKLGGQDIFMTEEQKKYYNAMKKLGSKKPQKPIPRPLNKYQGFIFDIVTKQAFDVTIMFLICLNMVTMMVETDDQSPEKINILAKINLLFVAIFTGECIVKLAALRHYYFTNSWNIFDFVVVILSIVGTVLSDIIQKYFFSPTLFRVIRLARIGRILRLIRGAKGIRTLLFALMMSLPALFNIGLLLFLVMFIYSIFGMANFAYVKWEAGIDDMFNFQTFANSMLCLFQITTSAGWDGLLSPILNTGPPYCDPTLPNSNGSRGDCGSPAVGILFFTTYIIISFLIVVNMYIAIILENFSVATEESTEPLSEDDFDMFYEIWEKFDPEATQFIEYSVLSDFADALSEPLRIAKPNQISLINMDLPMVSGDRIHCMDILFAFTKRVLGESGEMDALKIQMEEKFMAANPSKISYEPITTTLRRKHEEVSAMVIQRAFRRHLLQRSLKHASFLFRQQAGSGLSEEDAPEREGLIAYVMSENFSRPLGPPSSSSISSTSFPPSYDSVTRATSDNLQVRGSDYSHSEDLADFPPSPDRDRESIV
Description: as §1, §2, §3, §4

hNaV1.7 = hNaV1.7 (Homo sapiens (Human), UniProt Q15858); test: Ligand Binding Assay (LBA), radioligand displacement on hNaV1.7 HEK293 cell membranes; conditions: 0.5 nM [3H] radioligand, 24 hours at room temperature; read-out: NaV1.7 LBA IC50
hNaV1.7, sequence (Q15858 whole entry): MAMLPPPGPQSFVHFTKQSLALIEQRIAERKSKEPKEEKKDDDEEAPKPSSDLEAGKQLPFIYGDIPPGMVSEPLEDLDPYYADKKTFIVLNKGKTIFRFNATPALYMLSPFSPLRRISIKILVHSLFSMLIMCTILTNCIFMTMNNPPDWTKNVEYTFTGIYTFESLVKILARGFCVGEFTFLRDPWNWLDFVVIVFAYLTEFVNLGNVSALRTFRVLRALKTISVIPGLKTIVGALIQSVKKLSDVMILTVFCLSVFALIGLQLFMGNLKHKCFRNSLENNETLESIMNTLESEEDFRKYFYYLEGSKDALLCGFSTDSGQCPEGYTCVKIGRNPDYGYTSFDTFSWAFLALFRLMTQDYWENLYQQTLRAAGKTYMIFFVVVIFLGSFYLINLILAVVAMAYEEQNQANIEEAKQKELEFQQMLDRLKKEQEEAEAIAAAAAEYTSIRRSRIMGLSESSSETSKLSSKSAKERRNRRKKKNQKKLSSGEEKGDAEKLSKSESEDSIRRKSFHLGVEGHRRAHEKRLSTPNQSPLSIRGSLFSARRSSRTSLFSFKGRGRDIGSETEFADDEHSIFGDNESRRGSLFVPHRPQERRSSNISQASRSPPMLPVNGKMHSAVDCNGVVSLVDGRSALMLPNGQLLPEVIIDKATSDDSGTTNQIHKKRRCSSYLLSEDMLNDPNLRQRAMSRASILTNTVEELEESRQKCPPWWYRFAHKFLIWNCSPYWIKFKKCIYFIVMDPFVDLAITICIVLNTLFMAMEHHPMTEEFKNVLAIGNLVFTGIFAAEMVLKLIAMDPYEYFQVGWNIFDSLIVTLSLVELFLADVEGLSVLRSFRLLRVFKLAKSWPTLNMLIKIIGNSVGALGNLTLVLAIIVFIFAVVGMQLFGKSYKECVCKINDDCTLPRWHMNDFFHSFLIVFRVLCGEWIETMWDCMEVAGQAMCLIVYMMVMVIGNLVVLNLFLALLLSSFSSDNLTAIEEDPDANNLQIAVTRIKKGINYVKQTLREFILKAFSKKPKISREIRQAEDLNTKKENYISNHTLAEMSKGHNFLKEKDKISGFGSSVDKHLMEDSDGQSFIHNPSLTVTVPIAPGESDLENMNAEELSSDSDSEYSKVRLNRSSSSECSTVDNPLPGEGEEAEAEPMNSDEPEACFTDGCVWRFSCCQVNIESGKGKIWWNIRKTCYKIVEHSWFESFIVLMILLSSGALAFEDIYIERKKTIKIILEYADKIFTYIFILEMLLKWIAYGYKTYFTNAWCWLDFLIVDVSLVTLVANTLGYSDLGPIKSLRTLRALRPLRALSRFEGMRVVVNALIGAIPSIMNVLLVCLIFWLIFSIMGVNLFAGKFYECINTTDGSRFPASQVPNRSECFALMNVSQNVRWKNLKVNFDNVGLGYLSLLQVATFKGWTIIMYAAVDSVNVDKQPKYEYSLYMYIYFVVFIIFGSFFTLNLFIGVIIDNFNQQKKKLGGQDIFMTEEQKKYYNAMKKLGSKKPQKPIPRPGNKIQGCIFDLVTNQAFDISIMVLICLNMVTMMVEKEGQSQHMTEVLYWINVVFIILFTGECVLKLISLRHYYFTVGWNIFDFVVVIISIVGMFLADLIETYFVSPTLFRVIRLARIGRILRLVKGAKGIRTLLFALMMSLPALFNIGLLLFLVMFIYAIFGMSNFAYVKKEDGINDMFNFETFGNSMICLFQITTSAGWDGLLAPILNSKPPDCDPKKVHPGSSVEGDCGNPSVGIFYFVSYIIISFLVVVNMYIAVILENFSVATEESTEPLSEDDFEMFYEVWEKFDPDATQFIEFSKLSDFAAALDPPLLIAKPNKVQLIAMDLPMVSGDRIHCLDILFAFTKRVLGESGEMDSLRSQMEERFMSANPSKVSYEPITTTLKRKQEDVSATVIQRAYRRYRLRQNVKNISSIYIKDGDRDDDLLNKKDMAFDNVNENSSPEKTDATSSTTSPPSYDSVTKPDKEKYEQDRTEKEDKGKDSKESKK
Description: Ligand Binding Assay (LBA): hNaV1.7 binding affinities were determined with a filtration binding assay using purified membranes from HEK293 cells stably expressing hNaV1.7. HEK293 cells from a 10-stack cell culture flask (approximately 10^10 cells) were dissociated, frozen, and stored at −80° C. To prepare membranes, the frozen cell pellet was thawed and suspended in 6 ml hypotonic lysis buffer (50 mM HEPES, 0.1% mammalian protease inhibitor cocktail). 1 ml of resuspended cells was added to an additional 6 ml of lysis buffer and homogenized with 30 strokes of a tight pestle in a glass homogenizer. Homogenate was centrifuged at 1000×g for 10 minutes at 4° C. and the resulting supernatant was further centrifuged at 38,500×g for 60 minutes at 4° C. The resulting pellet was resuspended in binding buffer (50 mM HEPES, 130 mM NaCl, 5.4 mM KCl, 0.8 mM MgCl2, 5 mM glucose, pH 7.4) and needle homogenized with a 25 gauge needle. Protein concentration was determined with a BCA protein assay. Purified membranes were aliquoted, flash frozen in an ethyl alcohol dry ice bath, and stored at −80° C. To measure displacement of a radiolabeled ligand, 50 μg of purified hNaV1.7 HEK cell membranes were incubated with test compounds (eight concentrations, in duplicate) and 0.5 nM [3H] labeled radioligand in a 96 well plate for 24 hours at room temperature on a shaker. The total binding reaction volume was 250 μl, consisting of 200 μl purified hNaV1.7 HEK cell membranes, 25 μl test compound, and 25 μl radioligand. Non-specific binding was defined by 20 μM of a reference hNaV1.7 inhibitor. Binding reactions were terminated by filtration through GF/B filters presoaked in 0.5% polyethyleneamine. Filters were washed 5 times with 2 ml each of 4′C wash buffer (50 mM Tris-HCl, pH 7.4 at 4° C.). Bound radioactivity captured on the filters was counted on a liquid scintillation counter. Specific binding, expressed as % inhibition, was fit with Graphpad Prism software to determine binding IC50 values. Results are reported in Table 1 (NaV1.7 LBA IC50 in nM).

NaV1.7, sequence (Q15858 whole entry): as above

| Structure (SMILES) | IC50 (NaV1.7) [nM] | IC50 (NaV1.5) [µM] | IC50 (hNaV1.7) [nM] |
| --- | --- | --- | --- |
| CC(C)Cc1ccc(-c2cn(C)c3cc(C(=O)NS(C)(=O)=O)ccc23)cc1 [Example 12, 3-(4-Isobutylphenyl)-1-methyl-N-(methylsulfonyl)-1H-indole-6-carboxamide] | 363 | > 30 | 317 |
| Cn1cc(-c2cnc(OCC3CC3)c(Cl)c2)c2ccc(C(=O)NS(C)(=O)=O)cc21 [Example 34, 3-(5-Chloro-6-(cyclopropylmethoxy)pyridin-3-yl)-1-methyl-N-(methylsulfonyl)-1H-indole-6-carboxamide] | 189 | 8.37 | 270 |
| CC(C)COc1ncc(-c2cn(CC(C)C)c3cc(C(=O)NS(=O)(=O)C4CC4)ccc23)cc1Cl [Example 28, 3-(5-Chloro-6-isobutoxypyridin-3-yl)-N-(cyclopropylsulfonyl)-1-isobutyl-1H-indole-6-carboxamide] | 8050 | 11.3 | – |
| Cn1cc(-c2ccc(C(F)F)cc2)c2cc(F)c(C(=O)NS(C)(=O)=O)cc21 [Example 48, 3-(4-(Difluoromethyl)phenyl)-5-fluoro-1-methyl-N-(methylsulfonyl)-1H-indole-6-carboxamide] | 91 | > 30 | 956 |
| Cn1cc(-c2ccc(C(F)F)cc2)c2ccc(C(=O)NS(C)(=O)=O)cc21 [Example 30, 3-(4-(Difluoromethyl)phenyl)-1-methyl-N-(methylsulfonyl)-1H-indole-6-carboxamide] | 262 | > 30 | 1010 |
| Cc1ccc(-c2cn(C)c3cc(C(=O)NS(C)(=O)=O)ccc23)cc1 [Example 10, 1-Methyl-N-(methylsulfonyl)-3-(p-tolyl)-1H-indole-6-carboxamide] | 739 | > 30 | 1030 |
| Cn1cc(-c2ccc(C(F)(F)F)cc2)c2ccc(C(=O)NS(=O)(=O)c3ccc(F)c(F)c3)cc21 [Example 21, N-((3,4-difluorophenyl)sulfonyl)-1-methyl-3-(4-(trifluoromethyl)phenyl)-1H-indole-6-carboxamide] | > 30000 | 18.1 | > 30000 |
| COc1ncccc1-c1cn(C)c2cc(C(=O)NS(C)(=O)=O)ccc12 [Example 6, 3-(2-Methoxypyridin-3-yl)-1-methyl-N-(methylsulfonyl)-1H-indole-6-carboxamide] | > 30000 | > 30 | > 30000 |
| CCc1ccc(-c2cn(C)c3cc(C(=O)NS(C)(=O)=O)ccc23)cc1 [Example 14, 3-(4-Ethylphenyl)-1-methyl-N-(methylsulfonyl)-1H-indole-6-carboxamide] | 173 | > 30 | 554 |
| CC(C)COc1ncc(-c2cn(C)c3cc(C(=O)NS(=O)(=O)N(C)C)ccc23)cc1Cl [Example 25, 3-(5-Chloro-6-isobutoxypyridin-3-yl)-N—(N,N-dimethylsulfamoyl)-1-methyl-1H-indole-6-carboxamide] | 1280 | 6.33 | – |
| CC(C)COc1ncc(-c2nn(C)c3cc(C(=O)NS(C)(=O)=O)ccc23)cc1Cl [Example 39, 3-(5-Chloro-6-isobutoxypyridin-3-yl)-1-methyl-N-(methylsulfonyl)-1H-indazole-6-carboxamide] | 66 | 6.51 | 67 |
| Cn1cc(-c2ccc(C(F)(F)F)cc2)c2ccc(C(=O)NS(=O)(=O)C(F)(F)F)cc21 [Example 19, 1-Methyl-3-(4-(trifluoromethyl)phenyl)-N-((trifluoromethyl)sulfonyl)-1H-indole-6-carboxamide] | 812 | 7.48 | 1080 |
| CC(C)COc1ncc(-c2c3ccc(C(=O)NS(C)(=O)=O)cc3nn2C)cc1Cl [Example 40, 3-(5-Chloro-6-isobutoxypyridin-3-yl)-2-methyl-N-(methylsulfonyl)-2H-indazole-6-carboxamide] | 787 | 16.7 | 1990 |
| CCOc1ncc(-c2cn(C)c3cc(C(=O)NS(C)(=O)=O)ccc23)cn1 [Example 9, 3-(2-Ethoxypyrimidin-5-yl)-1-methyl-N-(methylsulfonyl)-1H-indole-6-carboxamide] | > 30000 | > 30 | > 20000 |
| Cn1cc(-c2cncc(F)c2)c2ccc(C(=O)NS(C)(=O)=O)cc21 [Example 7, 3-(5-Fluoropyridin-3-yl)-1-methyl-N-(methylsulfonyl)-1H-indole-6-carboxamide] | > 30000 | > 30 | – |
| CC(C)COc1ncc(-c2cn(C)c3cc(C(=O)NS(=O)(=O)N4CCCCC4)ccc23)cc1Cl [Example 26, 3-(5-Chloro-6-isobutoxypyridin-3-yl)-1-methyl-N-(piperidin-1-ylsulfonyl)-1H-indole-6-carboxamide] | 4180 | 8.77 | – |
| Cn1cc(-c2cccnc2)c2ccc(C(=O)NS(C)(=O)=O)cc21 [Example 8, 1-Methyl-N-(methylsulfonyl)-3-(pyridin-3-yl)-1H-indole-6-carboxamide] | > 30000 | – | – |
| CN(C)S(=O)(=O)NC(=O)c1ccc2c(-c3ccc(C(F)F)cc3)cn(C)c2c1 [Example 32, 3-(4-(Difluoromethyl)phenyl)-N—(N,N-dimethylsulfamoyl)-1-methyl-1H-indole-6-carboxamide] | 1910 | > 30 | – |
| CN(C)S(=O)(=O)NC(=O)c1ccc2c(-c3ccc(C(F)(F)F)cc3)cn(C)c2c1 [Example 33] | 1920 | 24.5 | – |
| CC(C)COc1ccc(-c2cn(C)c3cc(C(=O)NS(C)(=O)=O)ccc23)cc1 [Example 22, 3-(4-Isobutoxyphenyl)-1-methyl-N-(methylsulfonyl)-1H-indole-6-carboxamide] | 525 | – | 275 |
| CC(C)COc1ncc(-c2cn(CC(C)C)c3cc(C(=O)NS(C)(=O)=O)ccc23)cc1Cl [Example 27, 3-(5-Chloro-6-isobutoxypyridin-3-yl)-1-isobutyl-N-(methylsulfonyl)-1H-indole-6-carboxamide] | 3330 | 23.7 | – |
